# Test results reported in patent publication US10167262B2, “Herbicidal substituted 3-arylpyrazoles” (FMC CORPORATION, priority 2014, dated 2019).
# How the values were obtained:
# Test in all cases: Test E pre-/postemergence greenhouse test, plant response rating 0-100
# Type in all cases: in vivo
# [1] = test system: field bindweed (Convolvulus arvensis); conditions: scale 0 to 100
# In short: (§1)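 Pre- and postemergence sprays, vehicle non-phytotoxic solvent containing surfactant; postemergence plants 2–18 cm tall at the 1–4-leaf stage. Scored against controls after 14 to 21 days in a greenhouse, 0 being no effect and 100 complete control.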
# [2] = test system: palmer pigweed (Amaranthus palmeri); conditions: scale 0 to 100; for Pigweed, Palmer plant response rating: Preemergence
# In short: as §1
# [3] = test system: Italian ryegrass (Lolium multiflorum); conditions: Lolium multiflorum, post-emergence, Postemergence, scale 0 to 100
# In short: as §1
# [4] = test system: corn (Zea mays); conditions: scale 0 to 100
# In short: as §1
# [5] = test system: Brazilian crabgrass (Digitaria horizontalis); conditions: Digitaria horizontalis, post-emergence, Postemergence, scale 0 to 100, read-out: Plant response rating, Crabgrass, Brazil
# In short: as §1
# [6] = test system: dayflower (Virginia (VA) dayflower, Commelina virginica); conditions: scale 0 to 100
# In short: as §1
# [7] = test system: barnyardgrass (Echinochloa crus-galli); conditions: Echinochloa crus-galli, post-emergence, Postemergence, scale 0 to 100
# In short: as §1
# [8] = test system: hairy beggarticks (Bidens pilosa); conditions: Preemergence, scale 0 to 100
# In short: as §1
# [9] = test system: arrowleaf sida (Sida rhombifolia); conditions: scale 0 to 100
# In short: as §1
# [10] = test system: wild poinsettia (Euphorbia heterophylla); conditions: scale 0 to 100; for Poinsettia, Wild plant response rating: Preemergence
# In short: as §1
# [11] = test system: waterhemp (common waterhemp, Amaranthus rudis); conditions: scale 0 to 100; for Waterhemp plant response rating: Preemergence
# In short: as §1
# [12] = test system: sandbur (southern sandbur, Cenchrus echinatus); conditions: Cenchrus echinatus, post-emergence, Postemergence, scale 0 to 100
# In short: as §1
smiles,measurement,setting,value
"Cn1cc(C(=O)c2ccccc2)c(-c2cc(Cl)cc(Cl)c2)n1 [Compound 54, [3-(3,5-dichlorophenyl)-1-methyl-1H-pyrazol-4-yl]phenylmethanone]",pest or weed control at 16 g/ha,"[1]; Convolvulus arvensis, post-emergence, Postemergence, 16 g ai/ha",0%
same,pest or weed control at 31 g/ha,"[1]; Convolvulus arvensis, post-emergence, Postemergence, 31 g ai/ha",0%
same,pest or weed control at 62 g/ha,"[1]; Convolvulus arvensis, post-emergence, Postemergence, 62 g ai/ha",0%
same,pest or weed control at 125 g/ha,"[1]; Convolvulus arvensis, post-emergence, Postemergence, 125 g ai/ha",0%
same,pest or weed control at 250 g/ha,"[1]; Convolvulus arvensis, post-emergence, Postemergence, 250 g ai/ha",0%
same,pest or weed control at 1000 g/ha,"[1]; Convolvulus arvensis, pre-emergence, Preemergence, 1000 g ai/ha",0%
same,Field Bindweed plant response rating,"[1]; Preemergence, 125 g ai/ha",0
same,Field Bindweed plant response rating,"[1]; Preemergence, 250 g ai/ha",0
same,pest or weed control at 31 g/ha,"[2]; Amaranthus palmeri, post-emergence, Postemergence, 31 g ai/ha",40%
same,pest or weed control at 62 g/ha,"[2]; Amaranthus palmeri, post-emergence, Postemergence, 62 g ai/ha",60%
same,pest or weed control at 125 g/ha,"[2]; Amaranthus palmeri, post-emergence, Postemergence, 125 g ai/ha",75%
same,pest or weed control at 250 g/ha,"[2]; Amaranthus palmeri, post-emergence, Postemergence, 250 g ai/ha",95%
same,"Pigweed, Palmer plant response rating",[2]; 125 g ai/ha,86
same,"Pigweed, Palmer plant response rating",[2]; 250 g ai/ha,95
same,pest or weed control at 31 g/ha,[3]; 31 g ai/ha,0%
same,pest or weed control at 62 g/ha,[3]; 62 g ai/ha,0%
same,pest or weed control at 125 g/ha,[3]; 125 g ai/ha,0%
same,pest or weed control at 250 g/ha,[3]; 250 g ai/ha,0%
same,Corn plant response rating,"[4]; Preemergence, 125 g ai/ha",0
same,Corn plant response rating,"[4]; Preemergence, 250 g ai/ha",0
same,"Corn plant response rating (crop injury, 0 = no effect, 100 = complete kill) at 16 g/ha","[4]; Zea mays, post-emergence, Postemergence, 16 g ai/ha",0%
same,"Corn plant response rating (crop injury, 0 = no effect, 100 = complete kill) at 31 g/ha","[4]; Zea mays, post-emergence, Postemergence, 31 g ai/ha",0%
same,"Corn plant response rating (crop injury, 0 = no effect, 100 = complete kill) at 62 g/ha","[4]; Zea mays, post-emergence, Postemergence, 62 g ai/ha",0%
same,"Corn plant response rating (crop injury, 0 = no effect, 100 = complete kill) at 125 g/ha","[4]; Zea mays, post-emergence, Postemergence, 125 g ai/ha",0%
same,"Corn plant response rating (crop injury, 0 = no effect, 100 = complete kill) at 250 g/ha","[4]; Zea mays, post-emergence, Postemergence, 250 g ai/ha",0%
same,"Corn plant response rating (crop injury, 0 = no effect, 100 = complete kill) at 1000 g/ha","[4]; Zea mays, pre-emergence, Preemergence, 1000 g ai/ha",0%
same,pest or weed control at 16 g/ha,[5]; 16 g ai/ha,0%
same,pest or weed control at 31 g/ha,[5]; 31 g ai/ha,0%
same,pest or weed control at 62 g/ha,[5]; 62 g ai/ha,0%
same,pest or weed control at 125 g/ha,[5]; 125 g ai/ha,0%
same,pest or weed control at 250 g/ha,[5]; 250 g ai/ha,0%
same,pest or weed control at 16 g/ha,"[6]; Commelina virginica, post-emergence, Postemergence, 16 g ai/ha",0%
same,pest or weed control at 31 g/ha,"[6]; Commelina virginica, post-emergence, Postemergence, 31 g ai/ha",0%
same,pest or weed control at 62 g/ha,"[6]; Commelina virginica, post-emergence, Postemergence, 62 g ai/ha",0%
same,pest or weed control at 125 g/ha,"[6]; Commelina virginica, post-emergence, Postemergence, 125 g ai/ha",0%
same,pest or weed control at 250 g/ha,"[6]; Commelina virginica, post-emergence, Postemergence, 250 g ai/ha",0%
same,pest or weed control at 1000 g/ha,"[6]; Commelina virginica, pre-emergence, Preemergence, 1000 g ai/ha",0%
same,"Dayflower, VA plant response rating","[6]; Preemergence, 125 g ai/ha",0
same,"Dayflower, VA plant response rating","[6]; Preemergence, 250 g ai/ha",0
same,pest or weed control at 16 g/ha,[7]; 16 g ai/ha,0%
same,pest or weed control at 31 g/ha,[7]; 31 g ai/ha,0%
same,pest or weed control at 62 g/ha,[7]; 62 g ai/ha,0%
same,pest or weed control at 125 g/ha,[7]; 125 g ai/ha,0%
same,pest or weed control at 250 g/ha,[7]; 250 g ai/ha,0%
same,pest or weed control at 1000 g/ha,"[8]; Bidens pilosa, pre-emergence, 1000 g ai/ha",90%
same,Beggarticks plant response rating,[8]; 125 g ai/ha,0
same,Beggarticks plant response rating,[8]; 250 g ai/ha,23
same,Arrowleaf Sida plant response rating,"[9]; Preemergence, 125 g ai/ha",43
same,Arrowleaf Sida plant response rating,"[9]; Preemergence, 250 g ai/ha",80
same,pest or weed control at 16 g/ha,"[9]; Sida rhombifolia, post-emergence, Postemergence, 16 g ai/ha",30%
same,pest or weed control at 31 g/ha,"[9]; Sida rhombifolia, post-emergence, Postemergence, 31 g ai/ha",50%
same,pest or weed control at 62 g/ha,"[9]; Sida rhombifolia, post-emergence, Postemergence, 62 g ai/ha",50%
same,pest or weed control at 125 g/ha,"[9]; Sida rhombifolia, post-emergence, Postemergence, 125 g ai/ha",65%
same,pest or weed control at 250 g/ha,"[9]; Sida rhombifolia, post-emergence, Postemergence, 250 g ai/ha",75%
same,pest or weed control at 1000 g/ha,"[9]; Sida rhombifolia, pre-emergence, Preemergence, 1000 g ai/ha",100%
same,pest or weed control at 31 g/ha,"[10]; Euphorbia heterophylla, post-emergence, Postemergence, 31 g ai/ha, read-out: Plant response rating, Poinsettia, Wild",0%
same,pest or weed control at 62 g/ha,"[10]; Euphorbia heterophylla, post-emergence, Postemergence, 62 g ai/ha, read-out: Plant response rating, Poinsettia, Wild",0%
same,pest or weed control at 125 g/ha,"[10]; Euphorbia heterophylla, post-emergence, Postemergence, 125 g ai/ha, read-out: Plant response rating, Poinsettia, Wild",0%
same,pest or weed control at 250 g/ha,"[10]; Euphorbia heterophylla, post-emergence, Postemergence, 250 g ai/ha, read-out: Plant response rating, Poinsettia, Wild",0%
same,"Poinsettia, Wild plant response rating",[10]; 125 g ai/ha,80
same,"Poinsettia, Wild plant response rating",[10]; 250 g ai/ha,23
same,pest or weed control at 62 g/ha,"[11]; Amaranthus tuberculatus, post-emergence, Postemergence, 62 g ai/ha",60%
same,pest or weed control at 125 g/ha,"[11]; Amaranthus tuberculatus, post-emergence, Postemergence, 125 g ai/ha",70%
same,pest or weed control at 250 g/ha,"[11]; Amaranthus tuberculatus, post-emergence, Postemergence, 250 g ai/ha",95%
same,Waterhemp plant response rating,[11]; 125 g ai/ha,96
same,Waterhemp plant response rating,[11]; 250 g ai/ha,99
same,pest or weed control at 31 g/ha,[12]; 31 g ai/ha,0%
same,pest or weed control at 62 g/ha,[12]; 62 g ai/ha,0%
same,pest or weed control at 125 g/ha,[12]; 125 g ai/ha,0%
same,pest or weed control at 250 g/ha,[12]; 250 g ai/ha,0%
